Test results published in patent US6121252A, “Phosphinic acid derivatives” (priority 1998, dated 2000).
Like-named read-outs stand apart in the source and are kept apart here.

Key:
SHRSP rats = test: Cortical injury following MCAO in SHRSP rats; format: in vivo, rat; details: for Cortical Injury Volume / Cortical Injury Volume (% injury): ± S.E.M., n = 10
Procedure: Rectal temperature is maintained at 37.0±0.50° C. throughout the surgical procedure using a heating lamp.

extracellular glutamate = test: Stroke-induced rise in brain glutamate levels (microdialysis); format: in vivo, Sprague Dawley rats; details: 100 mg/kg IP then 20 mg/kg/hr IV
alcohol-preferring rats = test: Ethanol consumption in alcohol-preferring rats; format: in vivo, rat; details: for reduction of ethanol consumption: p<0.05
Procedure: A within-subject design was used where 2-(phosphonomethyl)pentanedioic acid treatments were tested once per week. Baseline ethanol drinking consisted of the mean of the 3 days prior to testing in which saline injections were given. […] 24 hour water and daily body weights were recorded to assess non-specific drug effects. Results were analyzed using paired t-tests with baseline and test day values serving as the independent variables. Ethanol intake was recorded as amount of solution consumed (mls).

Sprague-Dawley rats [1] = test: Dynorphin-induced spinal cord injury; format: in vivo, rat
Procedure: Dynorphin-induced spinal cord injury was performed according to Long et al., JPET, Vol. 269, No. 1, pp. 358-366 (1993). In brief, spinal subarachnoid injections were delivered using 30-gauge needles inserted between the L4-L5 vertebrae of male Sprague-Dawley rats (300-350 g). The rats were anesthetized with halothane and dorsal midline incisions were made immediately rostral to the pelvic girdle. By using the vertebral processes as guides, the needle was advanced to pass into the subarachnoid space surrounding the cauda equina. Correct needle placement was verified by CSF flow from the needle after its insertion. […] After injections, the incisions were treated with the topical antibacterial furazolidone and closed with wound clips. Rapid recovery from the halothane anesthesia enabled neurological evaluations to be made within 5 minutes of injections.
Neurological function was evaluated using a 5-point ordinal scale, with scores being assigned as follows: 4=normal motor function; 3=mild paraparesis, with the ability to support weight and walk with impairment; 2=paraparesis, with the ability to make walking movements without fully supporting weight; 1=severe paraparesis, in which rats could make limited hind limb movement, but not walking movement; and 0=flaccid paralysis, with complete absence of any hind limb movement. Neurological evaluations were made 24 hours after dynorphin A injection.
Differences in the neurological scores among treatment groups were determined by means of the Mann-Whitney U test or the Kruskal-Wallis test.

Sprague-Dawley rats [2] = test: Brain injury following MCAO in Sprague-Dawley rats; format: in vivo, rat; details: for mean total brain infarct volume: then 20 mg/kg/hr IV 4 hours
sciatic nerve = test: Myelin formation following sciatic nerve cryolesion; format: in vivo, mouse
Procedure: Cryolesion of the mouse sciatic nerve was performed according to Koenig et al. , Science, Vol. 268, pp. 1500-1503 (June 1995). In brief, each mouse was anesthetized and its sciatic nerve was exposed in the upper thigh and cryolesioned using a copper cryode (diameter=0.5 mm) that was dipped in liquid nitrogen and repeatedly applied to the upper part of the nerve. The extent of the lesion was approximately 1 mm.
Both right and left sciatic nerves of each mouse were lesioned; right-side nerves were treated with silicone implant strips containing vehicle alone while left-side nerves were treated with silicone implants containing 2-(phosphonomethyl)pentanedioic acid. Fifteen days after surgery, the mice were sacrificed and their sciatic nerve segments were collected and processed for light microscopy and TEM analysis. Randomly chosen fields 2-3 mm distal to the lesion were qualitatively analyzed by light microscopy using 1-micrometer-thick toluidine blue stained cross sections and photographic images were captured.

[3] = 10 mg/kg then 2 mg/kg/hr for 1 hour
[4] = 100 mg/kg then 20 mg/kg/hr for one hour

Procedure for LNCaP cells: On the 7th day, the cells are pulsed with 3H-thymidine for 4 hours, harvested and measured for radioactivity. Values represent means +/- SEM of 6 separate cell wells for each treatment. All experiments are performed at least twice.
LNCaP cells are obtained from Dr. William Nelson at the Johns Hopkins School of Medicine in Baltimore, Md. DU145 cells are obtained from American Type Culture Collection (Rockville, Md.). Cells are grown in RPMI-1640 media supplemented with 5% heat-inactivated fetal calf serum, 2 mM-glutamine, 100 units/ml penicillin, and 100 μg/ml streptomycin (Paragon) in a humidified incubator at 37° C. in a 5% CO2 /95% air atmosphere.
The cells are suspended at 1×10^3 cells/ml in RPMI-1640 media and seeded into 24-well plates at 500 μl per well. […] 5 ml UltimaGold (Packard) scintillation cocktail is added and radioactivity is quantitated using a Beckman LS6001 scintillation counter.

## O=C(O)CCC(CP(=O)(O)O)C(=O)O (stereo not drawn) [Compound 3, 2-(phosphonomethyl)pentanedioic acid]
SHRSP rats; [3]
  Cortical Protection: 27 % protection
  Cortical Injury Volume: 135.00 ± 32.18 mm^3
  Cortical Injury Volume (% injury): 29.14 ± 7.68 % injury
SHRSP rats; [4]
  Cortical Protection: 65 % protection
  Cortical Injury Volume: 65.23 ± 32.18 mm^3
  Cortical Injury Volume (% injury): 13.98 ± 6.64 % injury
Extracellular glutamate; p<0.01
  stroke-induced glutamate changes, parietal cortex (in words): completely prevented concurrent glutamate changes in the parietal cortex
Extracellular glutamate; p<0.05
  stroke-induced extracellular glutamate increase, striatum (in words): significantly attenuated stroke-induced extracellular glutamate increases in the striatum
Extracellular glutamate; vs vehicle
  glutamate, frontal cortex (in words): no subsequent difference between the vehicle and 2-(phosphonomethyl)pentanedioic acid treated groups
alcohol-preferring rats; 50 mg/kg IP, 1 hour access
  reduction of ethanol consumption: approximately 25%
alcohol-preferring rats; 50 mg/kg, saline baseline 8.1±0.6
  ethanol intake: 6.2±0.9 mls
alcohol-preferring rats; 100 mg/kg IP, 1 hour access
  reduction of ethanol consumption: approximately 25%
alcohol-preferring rats; 100 mg/kg, saline baseline 7.8±0.8
  ethanol intake: 5.8±0.7 mls
alcohol-preferring rats; 200 mg/kg IP, 1 hour access
  effect on ethanol consumption (in words): no effect
alcohol-preferring rats; 200 mg/kg, saline baseline 8.9±0.7
  ethanol intake: 8±0.5 mls
alcohol-preferring rats; 50, 100, 200 mg/kg
  body weights and 24 hour water intakes (in words): not altered at any of the 3 doses
LNCaP cells; 10 pM
  3H-Thymidine Incorporation: 3078 ± 1006 dpm/well
LNCaP cells; 100 pM
  3H-Thymidine Incorporation: 2062 ± 595 dpm/well
LNCaP cells; 1 nM
  3H-Thymidine Incorporation: 1001 ± 52 dpm/well
LNCaP cells; 10 nM
  3H-Thymidine Incorporation: 664 ± 366 dpm/well
Sprague-Dawley rats [1]; 4 μmoles with dynorphin A, 24 hours, p<0.05 vs vehicle
  motor scores (in words): significant improvement in motor scores
Sprague-Dawley rats [1]; 24 hours post-injection, 15 rats, vehicle 14%, p<0.05
  rats ambulatory: 73%
Sprague-Dawley rats [1]; rat, in vivo
  protection against dynorphin-induced spinal cord injury (in words): provides effective protection against dynorphin-induced spinal cord injury
Sprague-Dawley rats [2]; 100 mg/kg IP 20 minute pre-treatment, p=0.003 vs. vehicle (293±26)
  mean total brain infarct volume: 122±26 mm^3
Sprague-Dawley rats [2]; 100 mg/kg IP 30 minute post-treatment, p=0.2 vs. vehicle (293±26)
  mean total brain infarct volume: 208±40 mm^3
Sprague-Dawley rats [2]; 100 mg/kg IP 60 minute post-treatment, p=0.015 vs. vehicle (293±26)
  mean total brain infarct volume: 125±57 mm^3
Sprague-Dawley rats [2]; 100 mg/kg IP 120 minute post-treatment, p=0.005 vs. vehicle (293±26)
  mean total brain infarct volume: 133±35 mm^3
Sprague-Dawley rats [2]; up to 2 hours post-occlusion
  neuroprotection in rat MCAO model (in words): neuroprotective in rat MCAO model of stroke when administered up to 2 hours post-occlusion
Sciatic nerve; ave. + SEM, vehicle 13.77 ± 0.09, p < 0.005
  # of myelinated lamellae: 16.53 ± 0.65
Sciatic nerve; p < 0.005
  % increase of myelinated lamellae over vehicle: 20%
Sciatic nerve; silicone implant, approx. 2.5 μg/day, 15 days
  ratio of # of myelinated axons (drug/vehicle): 1.5
Sciatic nerve; vs vehicle, 3 mm distal to cryolesion
  increase in number of myelinated axons: 1.5 fold
Sciatic nerve; vs vehicle, 3 mm distal to cryolesion, p<0.005
  increase in myelin thickness: 20%
